From US20140323420A1, “REDUCING TRANSMISSION OF SEXUALLY TRANSMITTED INFECTIONS” (University of Rochester, priority 2011, published 2014)
Entries after “also recorded” stand apart in the source; their conditions may differ. Where two headings read alike, the source gives them in different places.

Legend:
Aβ(1-42) fibrils = molecular target: T1, Aβ(1-42) fibrils (Homo sapiens, UniProt P05067); assay: Example 4: centrifugation fluorescence binding assay of 1-5 to Aβ(1-42) fibrils
T1 construct: Aβ(1-42) peptide was purchased from GL Biochem (Shanghai, China) Ltd; purchased GL Biochem (Shanghai, China) Ltd; host or cells: synthetic peptide; fibrils grown in PBS at 37 °C for 24 h
T1 sequence (P05067 672-713 limits assumed): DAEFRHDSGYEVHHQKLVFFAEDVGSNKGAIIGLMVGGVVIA
Protocol: The binding of BTA monomer oligomer to amyloid fibrils was measured according to the centrifugation assay described by Levine for BTA-1 to Aβ fibrils (Levine et al., Amyloid 12:5-14 (2005)). […] These incubations were performed in duplicate runs and allowed to equilibrate for 12 hours at room temperature. After equilibration, each solution was centrifuged at 16,000 g for 20 minutes at 4° C. The supernatants were separated from the pelleted fibrils, and 220 μL of fresh 5% DMSO/PBS was added to re-suspend the pellets. 100 μl aliquots of each re-suspended pellet was pipetted into a cuvette (ultramicrocuvette, 10-mm light path, Hellma®, Müllheim, Germany), and the fluorescence of the bound molecule was determined at 355 nm excitation and 420 nm emission using a spectrofluorometer (Photon Technology International, Inc., Birmingham, N.J.). Each experiment was repeated at least 3 times. Error bars represent standard deviations from the mean. […] The data were processed using Origin 7.0 (MicroCal Software, Inc., Northampton, Mass.).

SEVI fibrils [1] = molecular target: T2, SEVI fibrils (Homo sapiens, UniProt P15309); assay: Example 3: fluorescence assay, Kd of monomer and oligomers 1-5 to SEVI fibrils; type: binding; details: Example 3, Table 2, estimated
T2 construct: PAP248-286 peptide was synthesized by New England Peptide; purchased New England Peptide (Gardner, Mass.); host or cells: chemical synthesis
T2 sequence (P15309 248-286 limits assumed): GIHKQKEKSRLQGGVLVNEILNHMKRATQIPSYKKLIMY
Protocol: To test whether binding affinity/avidity is reduced in oligomeric forms, the binding of monomeric and oligomeric forms was assayed to determine the affinity/avidity constants (Kd) for the binding of monomer and oligomers 1-5 to amyloid fibrils formed from SEVI peptides.

SEVI fibrils [2] = molecular target: T2, SEVI fibrils; assay: Example 4: centrifugation fluorescence binding assay of 1-5 to SEVI fibrils; details: Table 3, 5% DMSO/PBS
Description: Each experiment was repeated at least 3 times. Error bars represent standard deviations from the mean.
When the Kd values of compounds 1-5 to SEVI fibrils was examined, a similar trend for improved binding of the oligomeric BTA compounds was observed (Table 3). The greatest improvement in binding as a function of increasing valence number in the oligomer was observed when comparing the monomer to dimer and the tetramer to pentamer.

HIV-1IIIB [3] = assay: Semen-mediated enhancement of HIV-1 IIIB infection, CEM cells; type: cell-based; details: HIV-1 IIIB preincubated with 50% semen, diluted 15 fold onto CEM cells
Protocol: (§1) After 10 minutes, the stocks were diluted 15 fold and incubated with CEM 5.25 cells.

SEVI fibrils [4] = molecular target: T2, SEVI fibrils; assay: ThT fluorescence stability of preformed SEVI fibrils; details: 3 h incubation
Description: After that time, fibrillar structures were examined by ThT fluorescence. ThT changes in fluorescence intensity when intercalated into the β-sheet structure common to amyloid fibrils; therefore, ThT fluorescence serves as a surrogate measure for fibrillar structure of SEVI and for the stability of SEVI fibrils.

HIV-1ADA [5] = assay: Virus binding assay (p24), HIV-1 ADA virions; type: cell-based; details: A2En endocervical cells, with SEVI
Protocol: After 90 min, cells were washed to remove any unbound virus, and bound virions were detected using an HIV-1 p24 antigen capture assay (Advanced Bioscience Laboratory).
Surface-bound virions were then measured by p24 ELISA after washing off unbound virus. […] Additionally, this experiment was performed using A2En cells, a primary cell-derived endocervical cell line.

HIV-1ADA [6] = assay: Semen-mediated enhancement of HIV-1 ADA infection, CEM-M7 cells; type: cell-based
Protocol: After 15 min, the semen and virus mixture was diluted 1:15 into 5×10^4 CEM-M7 cells/well in a 96-well plate. Cells were washed after 1 h, and infection was assayed at 48 h as above.
As human semen has been reported to be toxic to cultured cells, a protocol that minimized this toxicity was used. Pooled human semen was added to HIV-1IIIB virus in a 1:1 dilution. After 15 min, this solution was added to cells at a 1:15 dilution for a final concentration of 3.3%.

SEVI fibrils [7] = molecular target: T2, SEVI fibrils; assay: Flow cytometry: binding of SEVI-biotin fibrils to the Jurkat cell surface; type: cell-based; details: 1 h; for MFI (mean fluorescent intensity): Jurkat cells + SEVI-biotin
Protocol: Cells were incubated for 1 h at 37° C., washed, and stained for 1 h with a covalent conjugate of streptavidin and fluorescein isothiocyanate (SA-FITC). Cells were washed and run on an Accuri C6 Flow Cytometer (Accuri Cytometers, Ann Arbor, Mich.). Data were analyzed using FlowJo (TreeStar Inc, Ashland, Oreg.).
After that time, fibrillar structures were examined by ThT fluorescence. ThT changes in fluorescence intensity when intercalated into the β-sheet structure common to amyloid fibrils; therefore, ThT fluorescence serves as a surrogate measure for fibrillar structure of SEVI and for the stability of SEVI fibrils. […] Binding of the fibrils to the cell surface was detected using SA-FITC. […] Surface-bound fibrils were detected with SA-FITC and measured by flow cytometry. Results are shown as percentage of cells with bound fibrils (SA-FITC+) as well as mean fluorescent intensity (MFI).

A2En cells = assay: HIV-1 BaL + SEVI chemokine release from A2En cells (ELISA); type: cell-based, human; details: HIV-1BAL virions + SEVI
Protocol: (§2) Supernatant was collected at 6 and 24 h, and the production of the chemokines IL-8 and Mip-3α was measured by ELISA (R&D Systems). […] After 6 h, supernatants were collected, and the production of the chemokines IL-8 and Mip-3α was measured by ELISA (R&D systems, Minneapolis, Minn.).

HIV-1IIIB [8] = assay: SEVI-mediated enhancement of HIV-1 IIIB infection, CEM-M7 (CEM 5.25) cells, luciferase; type: cell-based; details: for Inhibition of SEVI-mediated enhancement of HIV-1 infection (luciferase): CEM cells, with SEVI fibrils, increasing concentrations
Protocol: After 2 h, the medium […] were replaced.

HIV-1BaL = assay: SEVI-mediated enhancement of HIV-1 BaL infection of PBMCs, p24; type: cell-based
Protocol: Cells were washed at 3 h, and infection was analyzed at day 4 using the HIV-1 p24 antigen capture assay (Advanced Bioscience Laboratory).

SiHa cells = assay: Semen-mediated chemokine release from SiHa cells (ELISA); type: cell-based; details: pooled human semen, 33 μg/ml BTA-EG6, 6 h
Protocol: as §2
After 6 h, supernatants were collected and analyzed for production of IL-8 or MIP-3α.

[9] = molecular target: T3, aggregated Alzheimer disease-related Aβ(1-42) peptides (Homo sapiens, UniProt P05067); assay: Fluorescence binding assay of BTA-EG6 to aggregated Aβ(1-42) peptides; details: same fluorescence binding assay
T3 construct: aggregated Alzheimer disease-related Aβ(1-42) peptides
T3 sequence (P05067 672-713 limits assumed): as the sequence (P05067 672-713 limits assumed) above
Description: Error bars represent standard deviations from the mean.

HIV-1ADA [10] = assay: SEVI-mediated enhancement of HIV-1 ADA infection, CEM-M7 cells, luciferase; type: cell-based
Protocol: Treated virions were then added to 5×10^4 CEM-M7 cells/well in 96-well flat-bottomed tissue culture plates. After 2 h, the medium axis were replaced. Infection was assayed after 48 h by quantifying luciferase expression using the Promega Dual-Luciferase assay and a Beckman Coulter DTX880 plate reader.

[11] = system: cervical epithelial cell lines SiHa, A2En, 3EC1; type: cell-based, human
Protocol: Cytokine and chemokine production was assessed at 12 h by ELISA (R&D systems). Cells were also treated with 0.1% nonoxynol-9 as a positive control for cytotoxicity and with 0.1 μg/ml FSL1, a synthetic diacylated lipoprotein derived from Mycoplasma salivarium (InvivoGen, San Diego, Calif.), as a positive control for chemokine production.
Nonoxynol-9 (non-9), a spermicide, was used as a positive control. […] Cell culture supernatants were then assessed for the presence of the inflammatory cytokines and chemokines Mip-3α (FIG. 5B), IL-8 (FIG. 16C), IL-1β, and TNF-α.

HIV-1IIIB [12] = details: previously reported value for BTA-EG6; cited from earlier work
SEVI fibrils [13] = molecular target: T2, SEVI fibrils; assay: Fluorescence polarization: displacement of FITC-heparin from SEVI fibrils; type: binding; details: SEVI + 16 μg/ml FITC-heparin, 1 h room temperature
Protocol: Samples were incubated 1 h at room temperature and read on a PerkinElmer Life Sciences Envision 2012 multilabel reader (PerkinElmer, Waltham, Mass.) at an excitation λ=480 nm and emission λ=535 nm. The horizontal and vertical polarized fluorescence intensities were recorded, and the calculated polarization was determined in millipolarization units.
Samples were incubated for 1 hour at room temperature and polarized fluorescence was measured.

[14] = system: cervical epithelial cell lines SiHa, A2En, 3EC1; type: cell-based, human; remark: listed apart in the source
Description: For a compound to be a legitimate HIV-1 microbicide candidate, it must not have toxic or inflammatory effects on the cervical […]. Loss of this protective layer leads to an increased ability for HIV-1 to cross the mucosal barrier, and inflammatory effects drive recruitment of HIV-1 target cells, further decreasing the natural barriers against successful transmission of HIV. […] To do this, the following cell lines were used: 1) SiHa cells, a cervical carcinoma cell line; 2) A2En cells, a primary cell-derived line from the endocervical […]; and 3) 3EC1 cells, a primary cell-derived line from the ectocervical […]. […] Viability was assessed at 24 h by using the resazurin cytotoxicity assay. Resazurin cytotoxicity data were confirmed by trypan blue counts of viable cells.

HIV-1 IIIB = assay: Virus binding assay (p24), HIV-1 IIIB virions; type: cell-based; details: Jurkat cells; for Inhibition of SEVI-enhanced binding of HIV-1 virions to the cell surface (p24 ELISA): with SEVI, 90 min
Protocol: as §1

HIV-IIIB = assay: Screening hits: SEVI-mediated enhancement of HIV-IIIB infection, CEM-M7 cells; type: cell-based, HIV-1; details: 50 μM, 15 μg/mL SEVI, 48 hours
Protocol: Each of the selected compound shown below was incubated at 50 μM with 15 μg/mL of SEVI for 10 minutes. HIV-IIIB was then added and incubated for an additional 10 minutes prior to being added to CEM-M7 cells. After two hours the inoculum was removed and the cells washed with PBS. The cells were incubated for an additional 48 hours and then HIV infection was assessed by luciferase activity. Luciferase activity is graphed for each of the selected compounds in FIG. 29.
A high throughput assay was established to identify SEVI-binding compounds.

[15] = Table 3, 5% DMSO/PBS, read-out: Kd (nM) to Aβ(1-42) fibrils
[16] = heparin (100 μg/ml) positive control

Molecule: Cc1ccc2nc(-c3ccc(NCCC(=O)NCCOCCOCCOCCOCCC(=O)NCCN(CCNC(=O)CCOCCOCCOCCOCCNC(=O)CCNc4ccc(-c5nc6ccc(C)cc6s5)cc4)CCNC(=O)CCOCCOCCOCCOCCNC(=O)CCNc4ccc(-c5nc6ccc(C)cc6s5)cc4)cc3)sc2c1 [Compound 3, BTA Trimer]
- Kd (Aβ(1-42) fibrils; [15]): 26 ± 6 nM
- Kd (SEVI fibrils [1]): 40 ± 6 nM
- Kd (SEVI fibrils [2]): 40 ± 6 nM

Molecule: Cc1ccc2nc(-c3ccc(NCCC(=O)NCCOCCOCCOCCOCCC(=O)NCCNC(=O)CCOCCOCCOCCOCCNC(=O)CCNc4ccc(-c5nc6ccc(C)cc6s5)cc4)cc3)sc2c1 [Compound 2, BTA Dimer]
- Fold lower Kd than monomer 1, Aβ(1-42) fibrils (Aβ(1-42) fibrils): 8 fold
- Kd (Aβ(1-42) fibrils): 29 ± 4 nM
- Kd (SEVI fibrils [1]): 75 ± 10 nM
- Kd (SEVI fibrils [2]): 69 ± 1 nM

Molecule: Cc1ccc2nc(-c3ccc(NCCOCCOCCOCCOCCOCCO)cc3)sc2c1 [BTA-EG6]
- Inhibition of semen-mediated enhancement of HIV infection (luciferase) (HIV-1IIIB [3]): capable of inhibiting semen mediated enhancement of HIV infection; also recorded: efficiently inhibited the semen mediated enhancement of HIV-1 infection
- Effect on stability of preformed SEVI fibrils (ThT fluorescence) (SEVI fibrils [4]): no effect on fibrillar stability
- Inhibition of SEVI-enhanced binding of HIV-1 virions to the cell surface (p24 ELISA) (HIV-1ADA [5]): this effect was inhibited
- Inhibition of semen-mediated enhancement of HIV infection (luciferase) (HIV-1ADA [6]): this effect extended to infection with an R5 virus
- SA-FITC+ (%), percentage of cells with bound fibrils (SEVI fibrils [7]; BTA-EG6 high (27 μg/ml)): 21.2%
- SA-FITC+ (%), percentage of cells with bound fibrils (SEVI fibrils [7]; BTA-EG6 low (5.5 μg/ml)): 36.6%
- MFI (mean fluorescent intensity) (SEVI fibrils [7]; BTA-EG6 high (27 μg/ml)): 38.7
- MFI (mean fluorescent intensity) (SEVI fibrils [7]; BTA-EG6 low (5.5 μg/ml)): 95.3
- Inhibition of SEVI-increased IL-8 release (A2En cells): able to inhibit this release
- Inhibition of SEVI-mediated enhancement of HIV-1 infection (luciferase) (HIV-1IIIB [8]): decreasing levels of luciferase activity; also recorded: reducing infectivity nearly back to baseline levels
- Effect on infectivity of HIV alone (HIV-1IIIB [8]; CEM-M7, absence of SEVI): no effect on the infectivity of HIV virus alone
- Inhibition of SEVI-mediated enhancement of HIV-1 infection (p24) (HIV-1BaL; HIV-1BAL, 15 μg/ml SEVI): able to inhibit SEVI-mediated enhancement of HIV-1 infection in PBMCs
- Effect on infectivity of HIV alone (HIV-1BaL; HIV-1BaL, absence of SEVI): no effect on the infectivity of HIV-1BaL
- Effect on semen-stimulated IL-8 and MIP-3α production (SiHa cells): no inhibitory effect on semen-stimulated chemokine production
- Kd [9]: 111 ± 32 nM
- Inhibition of SEVI-mediated enhancement of HIV-1 infection (luciferase) (HIV-1ADA [10]; CEM-M7, 15 μg/ml SEVI): significant dose-dependent inhibition
- Effect on infectivity of HIV alone (HIV-1ADA [10]; CEM-M7, absence of SEVI): No effect on the infectivity of HIV-1ADA was observed
- Cytokine production (IL-1b, MIP-3a, TNF-a) by ELISA [11]: do not induce cytokine production
- Concentration required to completely neutralize the effects of SEVI on HIV-1 infection (HIV-1IIIB [12]): 44 µM
- Binding to SEVI fibrils, displacement of FITC-heparin (decrease of polarization) (SEVI fibrils [13]): capable of binding SEVI; also recorded: able to displace fluorescent heparin from the SEVI fibrils in a dose-dependent fashion
- Cell viability (Alamar Blue) [14]: did not affect the cell viability
- Cell viability (resazurin cytotoxicity assay) [14]: did not have any effects on cell viability
- Effect on binding of HIV virions to the cell surface (HIV-1 IIIB; absence of SEVI): no effect on the binding of HIV virions to the cell surface
- Inhibition of SEVI-enhanced binding of HIV-1 virions to the cell surface (p24 ELISA) (HIV-1 IIIB): decrease in HIV-1 binding to the cells
- Inhibition of SEVI-enhanced binding of HIV-1 virions to the cell surface (p24 ELISA) (HIV-1 IIIB; listed as BTAEG6): efficiently abrogated

Molecule: COc1ccc2cc3[n+](cc2c1OC)CCc1cc2c(cc1-3)OCO2 [Compound 11A5]
- Inhibition of SEVI-mediated enhancement of HIV infection (luciferase) (HIV-IIIB): inhibited SEVI-mediated enhancement of HIV infection

Molecule: CCNC(=O)C(CCCCNC(=O)CCOCCOCCOCCOCCNC(=O)CCNc1ccc(-c2nc3ccc(C)cc3s2)cc1)NC(=O)C(CCCCNC(=O)CCOCCOCCOCCOCCNC(=O)CCNc1ccc(-c2nc3ccc(C)cc3s2)cc1)NC(=O)C(CCCCNC(=O)CCOCCOCCOCCOCCNC(=O)CCNc1ccc(-c2nc3ccc(C)cc3s2)cc1)NC(=O)CCOCCOCCOCCOCCNC(=O)CCNc1ccc(-c2nc3ccc(C)cc3s2)cc1 (stereo not shown) [Compound 4, BTA Tetramer]
- Kd (Aβ(1-42) fibrils; [15]): 20 ± 5 nM
- Kd (SEVI fibrils [1]): 56 ± 6 nM
- Kd (SEVI fibrils [2]): 59 ± 6 nM

Molecule: COc1ccc(Cl)cc1-c1ccc(-c2c(C#N)c(N)n3c(nc4ccccc43)c2C#N)o1 [Compound 8E2]
- Inhibition of SEVI-mediated enhancement of HIV infection (luciferase) (HIV-IIIB): inhibited SEVI-mediated enhancement of HIV infection

Molecule: heparin [reference compound]
- SA-FITC+ (%), percentage of cells with bound fibrils (SEVI fibrils [7]; [16]): 31.7%
- MFI (mean fluorescent intensity) (SEVI fibrils [7]; [16]): 376
- Binding to SEVI fibrils, displacement of FITC-heparin (decrease of polarization) (SEVI fibrils [13]): the polarization decreased

Molecule: Cc1ccc2nc(-c3ccc(NCCOCCOCCOCCO)cc3)sc2c1 [BTA-EG4]
- Inhibition of semen-mediated enhancement of HIV infection (luciferase) (HIV-1IIIB [3]): capable of inhibiting semen mediated enhancement of HIV infection
- Inhibition of SEVI-mediated enhancement of HIV-1 infection (luciferase) (HIV-1IIIB [8]): decreasing levels of luciferase activity
- Cytokine production (IL-1b, MIP-3a, TNF-a) by ELISA [11]: do not induce cytokine production
- Binding to SEVI fibrils, displacement of FITC-heparin (decrease of polarization) (SEVI fibrils [13]): capable of binding SEVI
- Cell viability (Alamar Blue) [14]: did not affect the cell viability
- Inhibition of SEVI-enhanced binding of HIV-1 virions to the cell surface (p24 ELISA) (HIV-1 IIIB): decrease in HIV-1 binding to the cells

Molecule: CCNC(=O)CCOCCOCCOCCOCCNC(=O)CCNc1ccc(-c2nc3ccc(C)cc3s2)cc1 [Compound 1, BTA Monomer]
- Kd (Aβ(1-42) fibrils; [15]): 235 ± 75 nM
- Kd (SEVI fibrils [1]): 107 ± 16 nM
- Kd (SEVI fibrils [2]): 236 ± 90 nM
